Broadly, the EC50 is the concentration that produces a half-maximal response.

The record followed here is patent US20240059673A1, “SUBSTITUTED INDOLE COMPOUNDS” (Gilead Sciences, Inc., priority 2020, published 2024).

One assay concerns the target T1, TLR7 (Homo sapiens, UniProt Q9NYK1).
T1 construct: lymphocytes, monocytes and dendritic cells that express TLR7, TLR8 and TLR9; endogenous in cells; host or cells: cryopreserved human PBMCs from healthy donors
T1 sequence (Q9NYK1 27-1049): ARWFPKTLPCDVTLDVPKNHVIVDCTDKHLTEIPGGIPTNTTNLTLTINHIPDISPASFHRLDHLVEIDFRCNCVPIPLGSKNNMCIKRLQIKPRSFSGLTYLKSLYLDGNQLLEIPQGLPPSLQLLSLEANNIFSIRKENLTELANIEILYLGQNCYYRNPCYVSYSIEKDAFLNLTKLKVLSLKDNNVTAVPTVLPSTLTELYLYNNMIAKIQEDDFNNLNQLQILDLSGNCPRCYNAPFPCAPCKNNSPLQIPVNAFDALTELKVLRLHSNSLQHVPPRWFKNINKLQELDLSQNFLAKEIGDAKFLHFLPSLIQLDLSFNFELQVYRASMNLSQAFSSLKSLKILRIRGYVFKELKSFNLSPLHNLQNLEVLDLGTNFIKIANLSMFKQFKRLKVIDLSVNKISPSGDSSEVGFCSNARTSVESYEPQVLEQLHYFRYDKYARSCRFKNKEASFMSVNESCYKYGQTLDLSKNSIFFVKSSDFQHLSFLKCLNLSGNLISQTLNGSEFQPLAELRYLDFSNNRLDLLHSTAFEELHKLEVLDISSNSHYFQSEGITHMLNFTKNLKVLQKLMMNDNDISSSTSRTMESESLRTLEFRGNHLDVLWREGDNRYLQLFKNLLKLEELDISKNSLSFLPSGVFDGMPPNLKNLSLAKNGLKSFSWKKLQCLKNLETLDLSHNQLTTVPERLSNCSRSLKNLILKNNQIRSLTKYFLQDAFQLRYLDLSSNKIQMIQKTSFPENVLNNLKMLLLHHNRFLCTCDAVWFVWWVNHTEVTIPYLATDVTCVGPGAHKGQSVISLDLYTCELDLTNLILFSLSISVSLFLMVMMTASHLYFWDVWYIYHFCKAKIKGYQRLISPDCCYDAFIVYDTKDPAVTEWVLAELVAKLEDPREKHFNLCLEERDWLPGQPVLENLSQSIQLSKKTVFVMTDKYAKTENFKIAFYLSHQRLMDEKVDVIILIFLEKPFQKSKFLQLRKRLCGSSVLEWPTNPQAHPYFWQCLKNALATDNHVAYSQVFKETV
In words: Human PBMC cell-based assay, TLR7 agonist stimulation. Conditions: human PBMCs; TLR7 agonist GS-986 400 nM; 6 hours; cytokines (IL-6 and IFNα) in supernatant; Table 2; read-out: TLR-7 EC50. From the text:
(§1) Human Peripheral Blood Mononuclear Cell (PBMC) Cell-Based Assay
(§2) Human peripheral blood mononuclear cells (PBMCs) consist of lymphocytes, monocytes and dendritic cells that express TLR7, TLR8 and TLR9. These cells respond to TLR7, TLR8 and TLR9 ligand stimulation and produce cytokines and chemokines in vitro and in vivo. Human PBMCs are therefore suitable to be used in a cell-based assay to assess the in vitro potency of a TLR 7, 8, and/or 9 antagonist. The result is expected to be more translatable to the pharmacodynamics response in vivo than cell line-based assays.
(§3) Cryopreserved human PBMCs from healthy donors were thawed and resuspended in RPMI-1640 media with L-glutamine (Corning) supplemented with 10% Fetal Bovine Serum (Hyclone) and 1× Penicillin-Streptomycin (Corning). After counting, the cell density was adjusted to 2 million cells/ml and incubated for 1 hour at 37° C., 5% CO2 for recovery. Following the recovery, the cells were plated by adding 50p per well (100,000 cells) to 384-well cell culture plates (Greiner) containing 250 nl of test antagonists in 100% DMSO per well, in a 10 points dose response in quadruplicates. PBMCs were incubated in the presence of test antagonists for one hour at 37° C., 5% CO2 before being stimulated with a TLR7 or TLR9 agonist. GS-986 (Gilead Sciences) was used as the TLR7 agonist at a final concentration of 400 nM. ODN-2216 (InvivoGen) was used as the TLR9 agonist at a final concentration of 3μM. PBMCs were incubated in the presence of the test antagonist and the TLR7 (or TLR9) agonist for an additional 6 hours at 37° C., 5% CO2. At the end of the incubation, the cell culture plates were centrifuged at 500 g for 5 min, and the cell culture supernatant was collected. The level of cytokines (IL-6 and IFNα) in the supernatant was measured by electrochemiluminescence immunoassays (Mesoscale Discovery) following manufacturer's recommended protocols. The level of cytokine measured was plotted against the test antagonist concentration and fitted to a sigmoidal function to determine the EC50, which are shown below in Table 2.

A further assay deals with T2, TLR9 (Homo sapiens, UniProt Q9NR96).
T2 construct: lymphocytes, monocytes and dendritic cells that express TLR7, TLR8 and TLR9; endogenous in cells; host or cells: cryopreserved human PBMCs from healthy donors
T2 sequence (Q9NR96 26-1032): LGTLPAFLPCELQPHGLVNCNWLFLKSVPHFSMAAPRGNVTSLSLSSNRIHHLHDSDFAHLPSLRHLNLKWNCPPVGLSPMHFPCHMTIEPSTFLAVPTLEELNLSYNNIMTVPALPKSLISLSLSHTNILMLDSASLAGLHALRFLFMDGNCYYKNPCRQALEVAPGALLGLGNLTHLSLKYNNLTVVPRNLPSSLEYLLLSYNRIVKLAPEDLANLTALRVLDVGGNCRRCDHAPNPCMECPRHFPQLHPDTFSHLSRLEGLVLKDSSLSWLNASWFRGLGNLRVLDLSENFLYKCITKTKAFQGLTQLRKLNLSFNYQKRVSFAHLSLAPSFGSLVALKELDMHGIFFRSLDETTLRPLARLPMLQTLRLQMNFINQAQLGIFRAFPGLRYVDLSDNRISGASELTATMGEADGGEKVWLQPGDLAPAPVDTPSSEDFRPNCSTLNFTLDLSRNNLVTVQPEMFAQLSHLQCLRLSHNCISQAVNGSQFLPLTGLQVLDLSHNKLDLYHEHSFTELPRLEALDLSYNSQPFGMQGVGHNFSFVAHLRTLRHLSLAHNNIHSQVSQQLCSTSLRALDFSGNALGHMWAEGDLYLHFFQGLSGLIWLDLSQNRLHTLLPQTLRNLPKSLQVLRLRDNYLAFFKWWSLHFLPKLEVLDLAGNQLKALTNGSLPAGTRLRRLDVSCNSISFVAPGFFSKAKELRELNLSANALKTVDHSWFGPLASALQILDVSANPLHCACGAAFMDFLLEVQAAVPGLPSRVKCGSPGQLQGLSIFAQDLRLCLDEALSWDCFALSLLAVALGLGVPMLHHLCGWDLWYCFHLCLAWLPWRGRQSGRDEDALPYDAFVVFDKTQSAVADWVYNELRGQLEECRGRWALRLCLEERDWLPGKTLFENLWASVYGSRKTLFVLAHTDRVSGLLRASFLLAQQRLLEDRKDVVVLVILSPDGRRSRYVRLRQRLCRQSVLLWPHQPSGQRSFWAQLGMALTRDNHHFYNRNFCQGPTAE
Put plainly: Human PBMC cell-based assay, TLR9 agonist stimulation. Conditions: human PBMCs; TLR9 agonist ODN-2216 3 μM; 6 hours; cytokines (IL-6 and IFNα) in supernatant; Table 2; read-out: TLR-9 EC50.
Description: as §1, §2, §3

Take `Cc1cc(-c2ccc3c(C)c(-c4ccc(N5CCN(CCO)CC5)nc4)[nH]c3c2)cc(C)n1` [Example 30, 2-(4-(5-(6-(2,6-dimethylpyridin-4-yl)-3-methyl-1H-indol-2-yl)pyridin-2-yl)piperazin-1-yl)ethan-1-ol]: the EC50 was 10.2 nM at TLR7 and 37.8 nM on TLR9.
